Where a name gives a salt, the structure may show the parent alone.
Columns and labels:
THP-1 cells [1] = experiment: THP-1 cell activation by flow cytometry (CCR5, CD11b, CD86); assay type: cell-based, human; design: CD86 expression (printed C86): dose or concentration left out as unconfirmed
Procedure: THP-1 monocytes (ATCC, TIB-202) were cultured in T-75 flasks according to the protocol recommended by ATCC. […] THP-1 cells show a proclivity towards forming large aggregates of loosely joined cells. These clumps were broken down back into single cells through the addition of deoxyribonuclease 1 (DNase 1, dissolved in 0.85% NaCl in water) (Sigma-Aldrich, D4513) at a concentration of 0.1 mg/mL. When cells had reached their optimal density, they were harvested and pelleted via centrifugation at 150×g for 5 min, resuspended in multi-organ system medium (MOSM) and added to the systems at a physiologically relevant concentration of 250,000 cells/mL. THP-1 cell adhesion to the inside surfaces of the housings was minimized by passivating the inside surfaces with bovine serum albumin (BSA, 0.5 mg/mL dissolved in PBS). 10 uL of medium was removed from each system daily to determine the number of freely recirculating cells present. Initial THP-1 culture medium consisted of RPMI 1640 base medium (ThermoFisher, 11875135) with 10% fetal bovine serum (ThermoFisher, 16000044) and 1× GlutaMAX (ThermoFisher, 35050061).

3-O systems+THP-1 cells = experiment: Cytokine release in multi-organ systems; assay type: cell-based, human; settings: 50 uM amiodarone; 7-day time course
CYP3A4 = CYP3A4 (Homo sapiens, UniProt P08684); experiment: Liver cytochrome p450 activity, endpoint D7; assay type: cell-based; settings: 4-O systems, 50 uM amiodarone vs untreated controls
Procedure: (§1) Cytochrome p450 1A1 and 3A4 isoforms from the hepatic cultures were assessed with a luciferin based method in two reactions. Basal activities were compared to induced activities upon incubations with 10 nM TCDD (Sigma, 48599) and 20 μM Rifampicin (Sigma, R3501) for 48 h, prior to the analysis. At 7, 14, 21 and 28 DIV, cells were rinsed 3 times with 1×PBS and incubated with 1A1 specific substrate, Luciferin-CEE (120 μM) (Promega, V8752) in phenol red-free 1×DMEM (Thermo Fisher Scientific, A1443001) for 3 h at 37° C. The enzymatic product (D-Luciferin) of the first reaction was collected and stored at −80° C. until further analysis. […] Twenty minutes after incubation at room temperature in the dark, luminescence was measured using a Synergy HT plate reader with KC4 software. […] 3A4 samples were measured separately from 1A1 samples due to high differences in luminescence emission. Similarly, induced and uninduced samples were measured separately. Each plate was measured a minimum of 5 times to ensure the photomultiplier detector was stabilized, and the average of all readings was taken for the final RLU values. A regression line with the standards (0.5-500 nM diluted in 1×DMEM), subtracting intrinsic DMEM luminescence from values, was obtained for each analysis. […]

[2] = system: IPSC derived cardiomyocytes; experiment: Cardiac conduction velocity on patterned cMEA in 3-O/4-O systems; assay type: cell-based, human
Procedure: (§2) A four-organ system (4-O) was developed to contain a liver compartment, recirculating THP-1 cells, and three separate bioMEMs devices to measure the cardiomyocytes' electrical and mechanical functionality, as well as the mechanical function of the skeletal muscle. Three organ systems (3-0) were also developed to serve as a monocyte-free control for the 4-O systems. […] Cardiac and skeletal muscle mechanical function was evaluated by seeding the cardiomyocytes and skeletal muscle onto their own respective custom arrays of microscale cantilevers. Contractile force of the cardiac and skeletal muscle was calculated from laser-based measurements of cantilever bending resulting from contractile muscle (Stancescu et al 2015). Cardiac electrical function was measured via a microelectrode array amplifier system by incorporating and patterning cardiomyocytes onto custom microelectrode arrays with chemical patterning to produce a defined conduction path along a series of surface embedded microelectrodes (Nataraj an et al 2011, Stancescu et al 2015). Electrical stimulation for skeletal muscle force was generated inside the system with housing-embedded electrodes for cantilevers. […]
Custom patterned multielectrode arrays (cMEAs) were fabricated to simultaneously stimulate and record electrical activity of cardiomyocytes cultured on the surface (100 μm diameter electrodes, 1000 μm between electrodes). Before culturing, the surfaces were modified to promote cell adhesion in an unbroken “U” pattern that connected multiple electrodes, allowing conduction velocity of the cells to be recorded at different points (14 mm total path length). […]
Drug additions were performed on day 3 of the experiment, immediately after baseline recordings of spontaneous and stimulated cell activity were taken. Cell activity was recorded again 48 and 96 hours after drug exposure. […]

CYP2C9 = CYP2C9 (Homo sapiens, UniProt P11712); experiment: Liver cytochrome p450 activity, endpoint D7; assay type: cell-based; settings: 4-O systems, 50 uM amiodarone vs untreated controls
cardiac tissue = experiment: THP-1 cell infiltration into cardiac tissue (phase contrast, CellTracker Red); assay type: cell-based, human; settings: 4-O system dosed with amiodarone, after three days
Procedure: THP-1 cells were collected in a 15 mL conical tube and centrifuged to a pellet at 300 g for 5 minutes. The cells were resuspended and counted and the volume adjusted to 1×10^6 cells/mL. Then cells were then incubated with Cell Tracker Red CMTPX Dye (ThermoFisher C34552) following the manufacturer's protocol. The dye loaded cells were then used for infiltration studies in 4-O systems as described.

liver tissue = experiment: THP-1 infiltration into liver module by immunocytochemistry (CD11b, CD86); assay type: cell-based, human; settings: systems with recirculating THP macrophages, amiodarone, vs controls
Procedure: At the end of each experiment, cardiac cMEAs and hepatocyte coverslips were fixed with 4% paraformaldehyde in 1×PBS for 5 minutes. Cells were rinsed twice with 1×PBS and Cells were permeabilized with a solution of 0.1% Triton X-100 in 1×PBS for 15 minutes then blocked with 5% donkey serum in 1×PBS for 20 minutes. Cells were then incubated overnight at 4° C. with primary antibody in blocking solution. Primary antibodies used were anti-CD14, anti-CD16, anti-CD69, anti-CD11b, anti-CD86, and anti-CCR5. Following three, five-minute washes with 1×PBS, cells were incubated for 2 hours at room temperature in the dark with a secondary antibody conjugated to Alexa-488 fluorophore, or Alexa-568 fluorophore. Following the secondary antibody incubation, surfaces were washed 3× in PBS and incubated with 3 mM 4′-6-Diamidino-2-Phenylindole (DAPI) in 1×PBS for 10 min, in the dark and at RT for nuclei staining. DAPI solution was removed and the cells were washed 3× with PBS. Finally, coverslips were mounted on glass slides using a Hard Set Mounting with DAPI (Vector laboratories, Inc.). Alternatively, MEAs were left in the final 1×PBS rinse and imaged using a water immersion lens.

cardiac cells = experiment: Endpoint viability (alamar blue) of cardiac chips; assay type: cell-based, human; settings: 50 uM; endpoint day 7
Procedure: (§4) Cell viability was evaluated in one of three ways depending on the surface the cells were grown on. […] The viability of cardiac and skeletal muscle cells plated on BioMEMs devices was assessed using an alamar blue solution (Thermofisher, DAL1025). Surfaces were incubated in 500 μL of a 10% solution (v:v) of alamar blue in growth medium at 37° C., 5% CO2 for 24 hours. 100 μL of the solution was placed into a 96 well plate and read at fluorescence excitation wavelength 570 nm and emission at 590 nm using the BioTeK Synergy HT plate reader.

[3] = system: IPSC derived cardiomyocytes; experiment: Cardiac spontaneous beat frequency in 3-O/4-O systems; assay type: cell-based, human
Text: Custom patterned multielectrode arrays (cMEAs) were fabricated to simultaneously stimulate and record electrical activity of cardiomyocytes cultured on the surface (100 μm diameter electrodes, 1000 μm between electrodes). Before culturing, the surfaces were modified to promote cell adhesion in an unbroken “U” pattern that connected multiple electrodes, allowing conduction velocity of the cells to be recorded at different points (14 mm total path length). Patterned cMEAs were introduced to the housings during system assembly on day 0 of the experiment.
Printed circuit boards (PCBs) and flexible elastomeric connectors (zebra connectors, FUJIPOLY, 1 mm wide×18.2 mm long×9 mm tall) were incorporated into each system to create an interface between the cMEA and a commercially available 60 electrode amplifier (MEA1060, Multichannel-systems). This amplifier was used to both record spontaneous and stimulated electrical activity of the cardiomyocytes. A stimulus generator (STG 1002, Multichannel Systems) was used to stimulate the cells (800 mV rectangular pulse, 0.5 Hz to 3.0 Hz in 0.25 Hz increments). The multichannel systems software suite was used to control both the amplifier and stimulator, and was used to record action potentials.
Drug additions were performed on day 3 of the experiment, immediately after baseline recordings of spontaneous and stimulated cell activity were taken. Cell activity was recorded again 48 and 96 hours after drug exposure. Conduction velocity (CV), spontaneous beat frequency and minimum interspike interval (MIST) were extracted from the data using Clampfit (Axon Instruments).
Spontaneous beat frequency was obtained from spontaneous recordings of cardiac activity 20 seconds in length. For each recording, the frequency was calculated as the number of measured action potentials divided by the length of time between the first and last action potential during the recording interval. […]

skeletal muscle myotubes = experiment: Skeletal muscle force on cantilevers in 3-O/4-O systems; assay type: cell-based, human; settings: 50 uM; up to four days after dose, with or without THP-1
Procedure: as §2
(§3) Cardiac and skeletal muscle contractions were measured using a cantilever deflection system that has been described previously (McAleer, 2014; Oleaga, 2016; Oleaga, 2017; Pirozzi, 2013). […]

CYP1A = experiment: Liver cytochrome p450 activity, endpoint D7; assay type: cell-based, human; settings: 4-O systems, 50 uM amiodarone vs untreated controls
Procedure: as §1

[4] = system: IPSC derived cardiomyocytes; experiment: Cardiac contractile force on cantilevers in 3-O/4-O systems; assay type: cell-based, human
Procedure: as §2, §3

[5] = HPLC/MS determination of amiodarone remaining in system medium; assay type: in vitro ADME; settings: 24 hours post-dose
Procedure: Drug addition to the 3-O and 4-O systems was performed on D3 post-assembly. On the day of addition, 3× concentrations of each drug in the serum-free, multi-organ system medium (MOSM) were prepared in advance. ⅓ of the media in each system was removed and replaced with an equal volume of the concentrated drug solution. This facilitated for rapid mixing and complete diffusion of the drugs in the systems without requiring a full media change. […] Lipopolysaccharide (LPS, Sigma-Aldrich, L2630) was dissolved in PBS 1× at a concentration of 1 μg/mL and interferon-γ (IFN-γ) (Sigma-Aldrich, 11040596001) was dissolved in DI water at a concentration of 100,000 units/mL. LPS and IFN-γ were administered as a single cocktail at final concentrations of 10 ng/mL and 100 units/mL, respectively.
Medium samples collected from the systems were spiked with a tamoxifen internal standard (10 nM final measured concentration) and combined with acetonitrile at a 1:3 ratio to extract proteins. The mixtures were then centrifuged at 100×G for 5 minutes and supernatants were collected and diluted 1 to 51 in the initial mobile phase. […] Quantification and qualification ions for tamoxifen were 372.2→72.1 (28 eV CE) and 372.2→44 (48 eV), respectively. […]

THP-1 cells [6] = experiment: Viability of THP-1 cells treated directly; assay type: cell-based, human; settings: amiodarone treatment of THP-1 cells alone
skeletal muscle cells = experiment: Endpoint viability (alamar blue) of skeletal muscle chips; assay type: cell-based, human; settings: 50 uM; endpoint day 7
Procedure: as §4

[7] = THP-1 culture dosed with 50 μM PMA (positive control)
[8] = 50 uM acute, 4-O systems (with THP-1 cells)
[9] = 50 uM, 4-O systems, D4 after dose
[10] = 50 uM, without THP-1, vs untreated 3-O systems
[11] = amiodarone treatment of THP-1 cells alone
[12] = recirculating THP-1 cells from 4-O & 4-O+Amiodarone systems, days 1, 3, 5, 7

CYP3A4, sequence (P08684 whole entry, canonical isoform): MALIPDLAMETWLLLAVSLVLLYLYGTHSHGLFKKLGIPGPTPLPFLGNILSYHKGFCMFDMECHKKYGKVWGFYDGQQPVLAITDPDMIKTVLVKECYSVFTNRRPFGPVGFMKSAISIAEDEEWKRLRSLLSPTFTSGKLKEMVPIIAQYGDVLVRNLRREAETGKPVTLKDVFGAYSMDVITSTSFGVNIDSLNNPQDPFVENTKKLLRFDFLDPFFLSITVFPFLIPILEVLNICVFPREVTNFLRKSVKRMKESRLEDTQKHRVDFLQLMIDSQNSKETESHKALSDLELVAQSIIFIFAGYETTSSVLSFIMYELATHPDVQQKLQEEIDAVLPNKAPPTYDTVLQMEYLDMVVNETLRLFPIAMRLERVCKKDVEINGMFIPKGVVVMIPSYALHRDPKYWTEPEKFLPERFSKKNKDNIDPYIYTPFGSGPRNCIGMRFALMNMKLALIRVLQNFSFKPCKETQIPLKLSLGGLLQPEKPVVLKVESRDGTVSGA
CYP2C9, sequence (P11712 whole entry): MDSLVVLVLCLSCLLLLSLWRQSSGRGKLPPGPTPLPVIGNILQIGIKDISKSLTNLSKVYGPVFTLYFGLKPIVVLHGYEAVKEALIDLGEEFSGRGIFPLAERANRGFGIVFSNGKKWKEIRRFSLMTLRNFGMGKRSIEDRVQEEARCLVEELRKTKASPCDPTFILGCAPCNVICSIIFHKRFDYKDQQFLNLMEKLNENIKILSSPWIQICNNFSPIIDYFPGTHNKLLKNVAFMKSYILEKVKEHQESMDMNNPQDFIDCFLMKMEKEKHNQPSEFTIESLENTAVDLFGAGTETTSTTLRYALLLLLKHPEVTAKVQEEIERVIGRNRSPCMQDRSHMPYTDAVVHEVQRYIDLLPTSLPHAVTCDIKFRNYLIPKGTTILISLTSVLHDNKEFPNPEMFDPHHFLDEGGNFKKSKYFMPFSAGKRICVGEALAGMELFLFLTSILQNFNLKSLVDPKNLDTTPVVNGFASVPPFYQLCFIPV

With `CCCCCCCCCCCCCC(=O)O[C@@H]1[C@@H](C)[C@@]2(O)[C@@H](C=C(CO)C[C@]3(O)C(=O)C(C)=C[C@@H]23)[C@@H]2C(C)(C)[C@]12OC(C)=O` [PMA, phorbol 12-myristate 13-acetate] as the molecule, how does the “increase in CCR5 expression” value (THP-1 cells [1]; [7]) read?
Its value is 8%.

What about the “increase in CD11b expression” value (THP-1 cells [1]; [7]) of the same molecule?
Its value is 23%.

And the “CD86 expression (printed C86)” value (THP-1 cells [1]; THP-1 culture dosed with PMA (positive control))?
The value was “relatively unchanged”.

Which results are given for `CCCCc1oc2ccccc2c1C(=O)c1cc(I)c(OCCN(CC)CC)c(I)c1` [amiodarone, Amiodarone hydrochloride]?
IL-6 level (3-O systems+THP-1 cells): increased; IL-8 level (3-O systems+THP-1 cells): increased; MCP-1 level (3-O systems+THP-1 cells): increased; CYP3A4 activity (CYP3A4): significantly reduced; decrease in cardiac conduction velocity [2, 8]: 50%; conduction velocity at D4 [2, 9]: recovery; reduction of cardiac conduction velocity [2, 10]: 20%; CYP2C9 activity (CYP2C9): not affected; THP-1 cell infiltration into cardiac tissue (cardiac tissue): visibly infiltrated; CD11b and CD86 staining of liver cells (THP infiltration) (liver tissue): increase; cardiac chip viability (cardiac cells): does not significantly reduce viability; decrease in cardiac beat frequency [3, 8]: 60%; beat frequency at D4 [3, 9]: recovery; reduction of cardiac beat frequency [3, 10]: 45%; effect on skeletal muscle force (skeletal muscle myotubes): no significant effect; CYP1A activity (CYP1A): not affected; CCR5 expression (THP-1 cells [1]; [11]): did not significantly alter; CD11b expression (THP-1 cells [1]; [11]): did not significantly alter; CD86 expression (THP-1 cells [1]; [11]): did not significantly alter; CCR5 expression (THP-1 cells [1]; [12]): largely stable; CD11b expression (THP-1 cells [1]; [12]): increased; CD86 expression (THP-1 cells [1]; [12]): largely stable; decrease in cardiac force output [4, 8]: 80%; decrease in cardiac force output ([4]; acute dose 50 uM, printed as 4-O systems treated vs untreated systems): 50%; amiodarone mean concentration still present in the systems ([5]; 50 μM dose, 3-O systems+THP-1 cells): 1.41 µM; reduction of amiodarone in medium ([5]; from 50 μM): 97%; THP-1 cell viability (THP-1 cells [6]): did not significantly alter; skeletal muscle chip viability (skeletal muscle cells): does not significantly reduce viability
